In BigSolDB 2.1:

O=C1C=CC(=O)N1c1cc(F)c(Br)c(F)c1
Conditions | solubility (mole fraction)
in 1,4-dioxane, 287.65 K | 0.0122
in 1,4-dioxane, 290.65 K | 0.0133
in 1,4-dioxane, 293.85 K | 0.0146
in 1,4-dioxane, 297.15 K | 0.016
in 1,4-dioxane, 302.05 K | 0.0183
in 1,4-dioxane, 306.25 K | 0.0206
in 1,4-dioxane, 310.05 K | 0.023
in 1,4-dioxane, 317.15 K | 0.0281
in 1,4-dioxane, 321.65 K | 0.0318
in 1,4-dioxane, 324.45 K | 0.0342
in 1,4-dioxane, 330.85 K | 0.0408
in 1,4-dioxane, 335.35 K | 0.0464
in 1,4-dioxane, 339.15 K | 0.0513
in 1,4-dioxane, 342.25 K | 0.0558
in 1,4-dioxane, 347.25 K | 0.0639
in 1,4-dioxane, 353.65 K | 0.0759
in 2-butanone, 289.75 K | 0.0086
in 2-butanone, 299.25 K | 0.0112
in 2-butanone, 303.5 K | 0.0128
in 2-butanone, 308.75 K | 0.0149
in 2-butanone, 313 K | 0.017
in 2-butanone, 316.25 K | 0.0187
in 2-butanone, 318.6 K | 0.0202
in 2-butanone, 321.75 K | 0.022
in 2-butanone, 324.25 K | 0.0237
in 2-butanone, 327.05 K | 0.0257
in 2-butanone, 331.95 K | 0.0296
in 2-butanone, 335.25 K | 0.0326
in 2-butanone, 338.85 K | 0.036
in 2-butanone, 341.55 K | 0.039
in 2-butanone, 343.5 K | 0.0411
in 2-butanone, 345.25 K | 0.0432
in DMF, 289.45 K | 0.0208
in DMF, 293.65 K | 0.0228
in DMF, 300.83 K | 0.0269
in DMF, 305.65 K | 0.0301
in DMF, 308.85 K | 0.0324
in DMF, 317.55 K | 0.0398
in DMF, 320.45 K | 0.0426
in DMF, 322.95 K | 0.0452
in DMF, 325.25 K | 0.0477
in DMF, 333.55 K | 0.0582
in DMF, 337.65 K | 0.0643
in DMF, 342.65 K | 0.0722
in DMF, 346.65 K | 0.0794
in DMF, 350.75 K | 0.0876
in DMF, 353.35 K | 0.0932
in DMF, 356.25 K | 0.1
in DMSO, 289.35 K | 0.0116
in DMSO, 293.65 K | 0.0131
in DMSO, 297.05 K | 0.0143
in DMSO, 301.45 K | 0.0161
in DMSO, 305.95 K | 0.0184
in DMSO, 309.45 K | 0.0202
in DMSO, 314.05 K | 0.0231
in DMSO, 318.15 K | 0.026
in DMSO, 324.55 K | 0.0314
in DMSO, 328.05 K | 0.0348
in DMSO, 333.65 K | 0.0406
in DMSO, 338.85 K | 0.0473
in DMSO, 342.55 K | 0.0527
in DMSO, 346.05 K | 0.058
in DMSO, 349.35 K | 0.0637
in DMSO, 355.95 K | 0.0768
in cyclohexanone, 285.15 K | 0.0129
in cyclohexanone, 291.25 K | 0.0151
in cyclohexanone, 295.15 K | 0.0167
in cyclohexanone, 300.15 K | 0.0191
in cyclohexanone, 305.65 K | 0.0221
in cyclohexanone, 311.65 K | 0.0259
in cyclohexanone, 316.55 K | 0.0295
in cyclohexanone, 321.85 K | 0.0342
in cyclohexanone, 324.95 K | 0.037
in cyclohexanone, 328.75 K | 0.0411
in cyclohexanone, 333.25 K | 0.0462
in cyclohexanone, 337.35 K | 0.0515
in cyclohexanone, 341.35 K | 0.0572
in cyclohexanone, 348.35 K | 0.069
in cyclohexanone, 351.65 K | 0.0751
in cyclohexanone, 355.05 K | 0.0823
in toluene, 291.05 K | 0.0031
in toluene, 296.35 K | 0.0037
in toluene, 299.15 K | 0.0041
in toluene, 302.95 K | 0.0047
in toluene, 306.05 K | 0.0053
in toluene, 310.15 K | 0.0061
in toluene, 315.95 K | 0.0075
in toluene, 321.05 K | 0.0089
in toluene, 325.15 K | 0.0103
in toluene, 330.65 K | 0.0124
in toluene, 334.45 K | 0.014
in toluene, 340.75 K | 0.0175
in toluene, 343.55 K | 0.0192
in toluene, 348.45 K | 0.0226
in toluene, 350.65 K | 0.0244
in toluene, 354.45 K | 0.0276
